Values quoted from earlier work, collected in PMC7657096 (Medical Mycology, 2020).
Several values for one entry are separate records, joined by “and”; a condition that tells them apart may be missing. Equal values may be shown once. Read-outs that look alike come from different tables or passages of the source.

What was measured:
onychomycosis [1] = conditions: after 10 months following weekly application for 9 months
onychomycosis [2] = conditions: after 48 weeks following daily application for 48 weeks; two values
onychomycosis [3] = conditions: topical, applied for 52 weeks; two values
onychomycosis [4] = tested on: onychomycosis
onychomycosis [5] = conditions: topical solution applied daily for either 24 or 48 weeks
onychomycosis [6] = conditions: after 12 or 24 weeks of oral terbinafine treatment

CCC(C)(C)c1ccc(CC(C)CN2C[C@@H](C)O[C@@H](C)C2)cc1 (stereo partly shown) [amorolfine]
mycological cure (negative culture and negative microscopy) (onychomycosis [1]): 8%

Cc1cc(C2CCCCC2)n(O)c(=O)c1 [ciclopirox]
mycological cure (negative culture and negative microscopy) (onychomycosis [2]): 29% and 36%

C=C1CCN([C@H](C)[C@](O)(Cn2cncn2)c2ccc(F)cc2F)CC1 [efinaconazole]
mycological cure (onychomycosis [3]): 53.4% and 55.2%

OB1OCc2cc(F)ccc21 [tavaborole]
mycological cure (onychomycosis [4]; topical, applied for 52 weeks): 31.1% | negative culture (onychomycosis [4]; two phase III studies, daily topical treatment for 48 weeks, ref (57)): 87.0% and 85.4%

CN(C/C=C/C#CC(C)(C)C)Cc1cccc2ccccc12 [terbinafine]
mycological cure (onychomycosis [5]): 12.7–18.8% | trial participants with negative culture after 24 weeks (168 days) (onychomycosis [6]): approximately 80%
